Reference: paper PMC12365235, “Molecular mechanisms of thiazide-like diuretics-mediated inhibition of the human Na-Cl cotransporter” (Nature Communications, 2025)
Several values for one entry are separate records, joined by “and”; a condition that tells them apart may be missing. Identical values can stand only once.

Biological target: T1, hNCC(WT) (Homo sapiens, UniProt P55017)
T1 construct: expressed in transfected cells
T1 sequence (P55017 1-1021): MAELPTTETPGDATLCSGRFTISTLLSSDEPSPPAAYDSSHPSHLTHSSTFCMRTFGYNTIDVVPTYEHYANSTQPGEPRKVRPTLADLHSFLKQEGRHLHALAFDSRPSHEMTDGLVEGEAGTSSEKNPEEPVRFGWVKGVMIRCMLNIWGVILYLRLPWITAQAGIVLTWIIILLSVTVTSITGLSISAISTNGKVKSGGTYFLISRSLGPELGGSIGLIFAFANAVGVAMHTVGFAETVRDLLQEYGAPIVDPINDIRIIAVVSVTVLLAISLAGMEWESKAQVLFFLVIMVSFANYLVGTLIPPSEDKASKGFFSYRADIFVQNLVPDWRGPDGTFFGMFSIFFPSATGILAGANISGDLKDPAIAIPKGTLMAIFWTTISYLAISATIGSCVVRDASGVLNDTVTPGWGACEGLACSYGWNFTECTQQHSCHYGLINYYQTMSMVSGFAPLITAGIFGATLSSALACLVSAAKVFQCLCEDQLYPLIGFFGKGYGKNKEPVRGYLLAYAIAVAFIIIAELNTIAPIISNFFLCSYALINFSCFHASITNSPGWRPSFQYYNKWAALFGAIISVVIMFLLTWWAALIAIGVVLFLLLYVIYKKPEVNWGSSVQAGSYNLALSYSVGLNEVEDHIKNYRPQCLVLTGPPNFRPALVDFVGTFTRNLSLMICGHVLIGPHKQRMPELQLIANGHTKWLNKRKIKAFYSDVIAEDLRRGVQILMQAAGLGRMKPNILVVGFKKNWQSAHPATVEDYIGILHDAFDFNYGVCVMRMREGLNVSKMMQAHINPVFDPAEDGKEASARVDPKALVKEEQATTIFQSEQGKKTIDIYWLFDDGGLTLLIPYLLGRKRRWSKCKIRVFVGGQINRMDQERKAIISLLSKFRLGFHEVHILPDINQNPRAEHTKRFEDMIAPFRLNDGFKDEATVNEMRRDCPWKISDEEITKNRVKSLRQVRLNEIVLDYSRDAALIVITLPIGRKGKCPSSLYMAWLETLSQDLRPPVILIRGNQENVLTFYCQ
Assay: 125I- uptake assay, HEK293S cells stably expressing hNCC(WT)
Type: cell-based
Conditions: for apparent affinity compared to polythiazide (times lower): hNCC(WT), Supplementary Fig. 2d
Experimental: HEK293S cell lines, cultured in 293 Freestyle medium (Life Technologies; plus 10% fetal bovine serum), stably expressing hNCC and its variants were generated following published protocols. Cells were transfected using Lipofectamine 3000 (Invitrogen) with a pSBbi-RP-based plasmid containing hNCC or its variants and the SB100X vector. Puromycin (2 μg/mL; Gemini Bio-Products) was used for selection of stable cell lines.
To prepare for the uptake experiment, cells were plated at 0.5 × 10^6 cells/well in 24-well plates one day in advance. To activate NCC, cells were treated with a chloride-free hypotonic solution composed of 67.5 mM sodium-, 2.5 mM potassium-, 0.25 mM magnesium-, and 0.25 mM calcium-gluconate, as well as 7.5 mM HEPES pH 7.4 (buffered using Tris) at 37 °C for 10 min[72]. After the activation step, the experiments were carried out at room temperature. Ten minutes before the start of ^125I^− uptake, 70 μM Bumetanide (Thermo Scientific Chemicals) and 100 μM 4,4′-diisothiocyanatostilbene-2,2′-disulfonic acid (DIDS; Sigma) were added to suppress background iodide uptake activity. Indicated thiazide diuretics were also added to the indicated concentrations 10 min before the start of ^125I^− uptake. The original buffer was switched to an uptake buffer composed of 135 mM Na-gluconate, 5 mM K-gluconate, 1 mM Mg-gluconate, 1 mM Ca-gluconate, 70 μM bumetanide, 100 μM DIDS, 1 mM NaI, 0.25 μCi/ml Na^125I (American Radiolabeled Chemicals, Inc.), and 15 mM HEPES pH 7.4 (buffered using Tris), in the presence or absence of thiazide diuretics to initiate ^125I^− uptake. The ^125I^− uptake process lasted 1 h and was stopped by two rapid washes using ice-cold 110 mM MgCl2. Cells lysed using 1% sodium dodecyl sulfate (SDS) were analyzed by scintillation counting.
To calculate the fold change of the half-maximal inhibitory concentration (IC50) between hNCC(WT) and different hNCC variants, individual dose-response curves were normalized first using the smallest mean and the value of the lowest concentration as 0% and 100%, respectively. The normalized data were then fitted using the “EC50 shift” nonlinear regression in GraphPad Prism 10 with the shared EC50Control assigned to be the IC50 of hNCC(WT). The following constraints were used in the EC50 shift analysis. The EC50Control was set to be shared across all curves under analysis and constrained to be greater than 0. The EC50Ratio was constrained to be greater than 0. The bottom, top, and HillSlope were constrained to be 0, 100, and −1, respectively. For Fig. 1f, g and Supplementary Fig. 2d, GraphPad Prism 10 was used to perform curve fitting and IC50 calculation for normalized data using y = 100/(1 + (x/IC50)).

[1] = thiazide-sensitive iodide uptake, HEK293S stable cells, 1 mM extracellular iodide

Compound	IC50 [1]	apparent affinity compared to polythiazide (times lower)	IC50 (as quoted in reviewer comment on the earlier manuscript version) [nM]
CN1C(CSCC(F)(F)F)Nc2cc(Cl)c(S(N)(=O)=O)cc2S1(=O)=O (centres unmarked) [polythiazide]	0.58 nM and ~0.5 nM		
NS(=O)(=O)c1cc(C2(O)NC(=O)c3ccccc32)ccc1Cl (centres unmarked) [chlorthalidone]	23 nM	~ 40 times	
CC1Cc2ccccc2N1NC(=O)c1ccc(Cl)c(S(N)(=O)=O)c1 (centres unmarked) [indapamide]		~ 16 times	9.3
